Reference: the supplement of paper PMC10331698
± gives the standard deviation of the averaged measurements.

Columns and labels:
Experiment in all cases: level (log10 ratio to DMSO vehicle control); higher = higher biomarker level / cell amount than vehicle control
[1] = compound: NC(=O)C(F)(F)C(F)(F)C(F)(F)C(F)(F)C(N)=O [Octafluoroadipamide]; details: in DMSO
Procedure: (§1)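 BioMAP Diversity Plus panel of 12 human primary cell co-culture systems (3C, 4H, LPS, SAg, BT, BF4T, BE3C, CASM3C, HDF3CGF, KF3CT, MyoF, Mphg). Compounds were added 1 h before stimulation and left for 24 h (MyoF 48 h; BT 72 h for soluble read-outs or 6 d for IgG). Biomarkers were read by ELISA, cytotoxicity by SRB, PBMC viability and proliferation by Alamar Blue. Each well value was divided by the mean of 8 DMSO control wells on the same plate and log10 transformed; duplicate blinded samples were tested at 4 concentrations.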

[2] = compound: FC(F)(F)C(F)(F)C(F)(F)CC1CO1 [1H,1H-Heptafluorobutyl epoxide]; details: in DMSO
Procedure: as §1

[3] = compound: FC(F)(F)C(F)(F)C(F)(F)CI [Heptafluorobutyl iodide]; details: in DMSO
Procedure: as §1

[4] = compound: NC(=O)C(F)(F)C(F)(F)C(F)(F)C(F)(F)F [Nonafluoropentanamide]; details: in DMSO
Procedure: as §1

[5] = compound: COC(=O)C(F)(F)C(F)(F)OC(F)(C(F)(F)F)C(F)(F)OC(F)=C(F)F [Methyl perfluoro(3-(1-ethenyloxypropan-2-yloxy)propanoate)]; details: in DMSO
Procedure: as §1

[6] = compound: C=C(C)C(=O)OCCC(F)(F)C(F)(F)C(F)(F)C(F)(F)C(F)(F)C(F)(F)F [6:2 Fluorotelomer methacrylate]; details: in DMSO
Procedure: as §1

[7] = compound: O=S(=O)(O)CCC(F)(F)C(F)(F)C(F)(F)C(F)(F)C(F)(F)C(F)(F)F [6:2 Fluorotelomer sulfonic acid]; details: in DMSO
Procedure: as §1

[8] = compound: FC(F)(F)C(F)(F)C(F)(F)C(F)(F)C(F)(F)C(F)(F)CC1CO1 [3-(Perfluorohexyl)-1,2-epoxypropane]; details: in DMSO
Procedure: as §1

[9] = compound: O=S(=O)(O)C(F)(F)C(F)(F)C(F)(F)C(F)(F)C(F)(F)C(F)(F)C(F)(F)C(F)(F)C(F)(F)C(F)(F)F [Sodium perfluorodecanesulfonate]; details: in DMSO
Procedure: as §1

[10] = compound: O=S(=O)(F)C(F)(F)C(F)(F)C(F)(F)C(F)(F)C(F)(F)C(F)(F)C(F)(F)C(F)(F)F [Perfluorooctanesulfonyl fluoride]; details: in DMSO
Procedure: as §1

[11] = compound: NC(=O)C(F)(F)C(F)(F)C(F)(F)C(F)F; details: in DMSO
Procedure: as §1

[12] = compound: OCC(F)(F)C(F)(F)C(F)(F)CO [Hexafluoroamylene glycol]; details: in DMSO
Procedure: as §1

[13] = compound: O=C(O)C=CC(F)(C(F)(F)F)C(F)(F)F [3-(Perfluoroisopropyl)-2-propenoic acid]; details: in DMSO
Procedure: as §1

[14] = compound: NS(=O)(=O)C(F)(F)C(F)(F)C(F)(F)C(F)(F)C(F)(F)C(F)(F)F [Perfluorohexanesulfonamide]; details: in DMSO
Procedure: as §1

[15] = compound: C=CC(=O)OCC(F)(F)C(F)(F)C(F)(F)COC(=O)C=C [1H,1H,5H,5H-Perfluoro-1,5-pentanediol diacrylate]; details: 6700 nM; in DMSO
Procedure: as §1

[16] = compound: FC(F)(F)C(F)(F)C(F)(F)C(F)(F)C(F)(F)C(F)(F)C(F)(F)I [1-Iodopentadecafluoroheptane]; details: in DMSO
Procedure: as §1

[17] = compound: FC(F)(F)C(F)(F)CNCC(F)(F)C(F)(F)F [Bis(1H,1H-perfluoropropyl)amine]; details: in DMSO
Procedure: as §1

[18] = compound: O=C(O)C(F)(F)C(F)(F)C(F)(F)C(F)(F)C(F)(F)C(F)(F)C(F)(F)C(F)(F)C(F)(F)C(F)F [11-H-Perfluoroundecanoic acid]; details: in DMSO
Procedure: as §1

[19] = compound: O=S(=O)(Cl)C(F)(F)C(F)(F)C(F)(F)C(F)(F)C(F)(F)C(F)(F)C(F)(F)C(F)(F)F [Perfluoro-1-octanesulfonyl chloride]; details: in DMSO
Procedure: as §1

## BT:sIL-17A
[1]; 6700 nM
  level (log10): -0.107 ± 0.018
[1]; 20000 nM
  level (log10): -0.0535 ± 0.098
[1]; 60000 nM
  level (log10): 0.0055 ± 0.025
[2]; 6700 nM
  level (log10): -0.0185 ± 0.022
[2]; 20000 nM
  level (log10): 0.0025 ± 0.033
[2]; 60000 nM
  level (log10): -0.033 ± 0.067
[3]; 6700 nM
  level (log10): 0.009 ± 0.02
[3]; 20000 nM
  level (log10): 0.009 ± 0.045
[3]; 60000 nM
  level (log10): -0.176 ± 0.11
[4]; 6700 nM
  level (log10): -0.145 ± 0.18
[4]; 20000 nM
  level (log10): 0.05 ± 0.064
[4]; 60000 nM
  level (log10): -0.213 ± 0.17
[5]; 6700 nM
  level (log10): 0.033 ± 0.018
[5]; 20000 nM
  level (log10): 0.061 ± 0.17
[6]; 6700 nM
  level (log10): -0.058 ± 0.16
[6]; 20000 nM
  level (log10): 0.028 ± 0.099
[6]; 60000 nM
  level (log10): -0.078 ± 0.04
[7]; 6700 nM
  level (log10): -0.135 ± 0.05
[7]; 20000 nM
  level (log10): -0.005 ± 0.081
[7]; 60000 nM
  level (log10): -0.126 ± 0.21
[8]; 6700 nM
  level (log10): -0.0215 ± 0.057
[8]; 20000 nM
  level (log10): -0.0315 ± 0.12
[8]; 60000 nM
  level (log10): -0.041 ± 0.11
[9]; 1500 nM
  level (log10): 0.0435 ± 0.16
[9]; 4400 nM
  level (log10): 0.057 ± 0.17
[9]; 13000 nM
  level (log10): 0.052 ± 0.3
[9]; 40000 nM
  level (log10): -0.0495 ± 0.11
[10]; 6700 nM
  level (log10): -0.047 ± 0.098
[10]; 20000 nM
  level (log10): -0.176 ± 0.021
[10]; 60000 nM
  level (log10): -0.112 ± 0.021
[11]; 6700 nM
  level (log10): 0.059 ± 0.033
[11]; 20000 nM
  level (log10): 0.025 ± 0.19
[11]; 60000 nM
  level (log10): -0.0885 ± 0.32
[12]; 6700 nM
  level (log10): -0.089 ± 0.0014
[12]; 20000 nM
  level (log10): -0.0745 ± 0.0064
[12]; 60000 nM
  level (log10): 0.0015 ± 0.05
[13]; 6700 nM
  level (log10): -0.01 ± 0.047
[13]; 20000 nM
  level (log10): 0.024 ± 0.14
[13]; 60000 nM
  level (log10): -0.124 ± 0.13
[14]; 6700 nM
  level (log10): -0.155 ± 0.069
[14]; 20000 nM
  level (log10): -0.072 ± 0.069
[14]; 60000 nM
  level (log10): -0.026 ± 0.051
[15]
  level (log10): -1.14 ± 0.22
[16]; 6700 nM
  level (log10): -0.213 ± 0.3
[16]; 20000 nM
  level (log10): -0.112 ± 0.31
[17]; 6700 nM
  level (log10): -0.0465 ± 0.067
[17]; 20000 nM
  level (log10): -0.075 ± 0.13
[17]; 60000 nM
  level (log10): -0.069 ± 0.25
[18]; 6700 nM
  level (log10): 0.003 ± 0.0057
[18]; 20000 nM
  level (log10): -0.0485 ± 0.061
[19]; 6700 nM
  level (log10): -0.0095 ± 0.08
[19]; 20000 nM
  level (log10): 0.0335 ± 0.071
[19]; 60000 nM
  level (log10): -0.084 ± 0.15

## CASM3C:CCL2/MCP-1
[1]; 6700 nM
  level (log10): -0.0095 ± 0.0078
[1]; 20000 nM
  level (log10): -0.0085 ± 0.0078
[1]; 60000 nM
  level (log10): 0.017 ± 0.02
[2]; 6700 nM
  level (log10): -0.007 ± 0.023
[2]; 20000 nM
  level (log10): -0.0275 ± 0.00071
[2]; 60000 nM
  level (log10): 0.004 ± 0.014
[3]; 6700 nM
  level (log10): -0.0055 ± 0.0021
[3]; 20000 nM
  level (log10): -0.021 ± 0.011
[3]; 60000 nM
  level (log10): 0.018 ± 0.045
[4]; 6700 nM
  level (log10): -0.014 ± 0.0028
[4]; 20000 nM
  level (log10): 0.001 ± 0.0099
[4]; 60000 nM
  level (log10): -0.001 ± 0.0014
[5]; 6700 nM
  level (log10): -0.001 ± 0.0014
[5]; 20000 nM
  level (log10): 0.008 ± 0.016
[6]; 6700 nM
  level (log10): -0.005 ± 0.0028
[6]; 20000 nM
  level (log10): -0.011 ± 0.0014
[6]; 60000 nM
  level (log10): -0.0015 ± 0.021
[7]; 6700 nM
  level (log10): -0.0125 ± 0.011
[7]; 20000 nM
  level (log10): -0.01
[7]; 60000 nM
  level (log10): 0.0225 ± 0.032
[8]; 6700 nM
  level (log10): 0.0035 ± 0.022
[8]; 20000 nM
  level (log10): 0 ± 0.031
[8]; 60000 nM
  level (log10): 0.034 ± 0.028
[9]; 1500 nM
  level (log10): -0.022 ± 0.023
[9]; 4400 nM
  level (log10): -0.024 ± 0.0028
[9]; 13000 nM
  level (log10): 0.0115 ± 0.026
[9]; 40000 nM
  level (log10): 0.0095 ± 0.0064
[10]; 6700 nM
  level (log10): -0.004 ± 0.014
[10]; 20000 nM
  level (log10): -0.0035 ± 0.005
[10]; 60000 nM
  level (log10): 0.0055 ± 0.03
[11]; 6700 nM
  level (log10): -0.0055 ± 0.013
[11]; 20000 nM
  level (log10): -0.011 ± 0.018
[11]; 60000 nM
  level (log10): 0.015 ± 0.045
[12]; 6700 nM
  level (log10): -0.0085 ± 0.0064
[12]; 20000 nM
  level (log10): -0.014 ± 0.011
[12]; 60000 nM
  level (log10): 0.012 ± 0.047
[13]; 6700 nM
  level (log10): 0.007 ± 0.017
[13]; 20000 nM
  level (log10): -0.0055 ± 0.011
[13]; 60000 nM
  level (log10): 0.023 ± 0.044
[14]; 6700 nM
  level (log10): -0.006 ± 0.0014
[14]; 20000 nM
  level (log10): 0.0015 ± 0.012
[14]; 60000 nM
  level (log10): 0.028 ± 0.017
[15]
  level (log10): 0 ± 0.0085
[16]; 6700 nM
  level (log10): -0.01 ± 0.0042
[16]; 20000 nM
  level (log10): 0.005 ± 0.018
[17]; 6700 nM
  level (log10): -0.0065 ± 0.013
[17]; 20000 nM
  level (log10): -0.0205 ± 0.015
[17]; 60000 nM
  level (log10): -0.0055 ± 0.04
[18]; 6700 nM
  level (log10): 0.0005 ± 0.0035
[18]; 20000 nM
  level (log10): 0.012 ± 0.024
[19]; 6700 nM
  level (log10): -0.0025 ± 0.0078
[19]; 20000 nM
  level (log10): -0.0115 ± 0.0092
[19]; 60000 nM
  level (log10): 0.031 ± 0.044
